# Molecular target: human truncated cGAS enzyme (147-522 human cGAS) (Homo sapiens (Human), UniProt Q8N884)
# Assay: Quantification of cGAS protein inhibition (cGAMP formation measured by LC-MS/MS)
# Format: biochemical
# Settings: reported for the potential mixture in solution of co-existing tautomers and/or racemates
# Method in brief: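 Human cGAS 147-522 (30 nM) in Tris pH 7.5, NaCl, MgCl2, ZnCl2, Tween 20, started with 5 μM ISD 45 bp dsDNA, 0.5 mM GTP and 0.5 mM ATP. Incubated 1 h at room temperature, then quenched with acetonitrile/TFA. cGAMP quantified by LC-MS/MS against a labelled cGAMP internal standard; IC50 from ratio versus compound concentration.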
# Sequence of human truncated cGAS enzyme (147-522 human cGAS) (Q8N884 147-522): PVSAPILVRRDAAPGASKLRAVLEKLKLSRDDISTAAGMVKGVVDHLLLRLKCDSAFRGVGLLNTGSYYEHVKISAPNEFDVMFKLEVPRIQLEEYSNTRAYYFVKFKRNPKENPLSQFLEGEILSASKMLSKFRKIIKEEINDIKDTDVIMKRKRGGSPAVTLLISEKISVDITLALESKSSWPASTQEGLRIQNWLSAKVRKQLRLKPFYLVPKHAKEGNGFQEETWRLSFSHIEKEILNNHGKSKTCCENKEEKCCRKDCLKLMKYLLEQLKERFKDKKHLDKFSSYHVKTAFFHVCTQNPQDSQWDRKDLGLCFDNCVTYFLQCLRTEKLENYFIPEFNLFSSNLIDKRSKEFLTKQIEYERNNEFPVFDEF
row,Structure (SMILES),IC50 [nM]
1,"COc1cc2c(-n3ccnc3)c(-c3nnc(CCO)[nH]3)n(C)c2c(C#N)c1Cl [Example 118, 6-chloro-2-(5-(2-hydroxyethyl)-4H-1,2,4-triazol-3-yl)-3-(1H-imidazol-1-yl)-5-methoxy-1-methyl-1H-indole-7-carbonitrile]",291
2,"FC(F)(F)c1nnc(-c2[nH]c3c(Cl)c(Cl)ccc3c2-n2ccnc2)[nH]1 [Example 106, 6,7-dichloro-3-(1H-imidazol-1-yl)-2-(5-(trifluoromethyl)-4H-1,2,4-triazol-3-yl)-1H-indole]",95
3,"FC(F)(F)c1nnc(-c2[nH]c3cc(Cl)c(Cl)cc3c2-n2ccnc2)[nH]1 [Example 105, 5,6-dichloro-3-(1H-imidazol-1-yl)-2-(5-(trifluoromethyl)-4H-1,2,4-triazol-3-yl)-1H-indole]",564
4,"CN[C@H](COC)c1nnc(-c2c(-n3ccnc3)c3cc(OC)c(Cl)c(F)c3n2C)[nH]1 [Example 125b, (S)-1-(5-(6-chloro-7-fluoro-3-(1H-imidazol-1-yl)-5-methoxy-1-methyl-1H-indol-2-yl)-4H-1,2,4-triazol-3-yl)-2-methoxy-N-methylethan-1-amine]",180
5,"COCCNC(C)c1nnc(-c2c(-n3ccnc3)c3cc(OC)c(Cl)c(F)c3n2C)[nH]1 (centres unmarked) [Example 129, 1-(5-(6-chloro-7-fluoro-3-(1H-imidazol-1-yl)-5-methoxy-1-methyl-1H-indol-2-yl)-4H-1,2,4-triazol-3-yl)-N-(2-methoxyethyl)ethan-1-amine]",757
6,"COC[C@@H](c1nnc(-c2c(-n3ccnc3)c3cc(OC)c(Cl)c(F)c3n2C)[nH]1)N(C)C [Example 124a, (R)-1-(5-(6-chloro-7-fluoro-3-(1H-imidazol-1-yl)-5-methoxy-1-methyl-1H-indol-2-yl)-4H-1,2,4-triazol-3-yl)-2-methoxy-N,N-dimethylethan-1-amine]",120
7,"Cn1c(-c2nnc(C(F)(F)F)[nH]2)c(-n2ccnc2)c2cc(Cl)c(Cl)cc21 [Example 108, 5,6-dichloro-3-(1H-imidazol-1-yl)-1-methyl-2-(5-(trifluoromethyl)-4H-1,2,4-triazol-3-yl)-1H-indole]",282
8,"Cn1c(-c2nnc(C(F)(F)F)[nH]2)c(-n2ccnc2)c2ccc(Cl)c(C#N)c21 [Example 111, 6-chloro-3-(1H-imidazol-1-yl)-1-methyl-2-(5-(trifluoromethyl)-4H-1,2,4-triazol-3-yl)-1H-indole-7-carbonitrile]",201
9,"COc1cc2c(-n3ccnc3)c(-c3nnc(CCO)[nH]3)n(C)c2cc1Cl [Example 119, 2-(5-(6-chloro-3-(1H-imidazol-1-yl)-5-methoxy-1-methyl-1H-indol-2-yl)-4H-1,2,4-triazol-3-yl)ethan-1-ol]",990
10,"COc1cc2c(-n3ccnc3)c(-c3nnc(C(C)=O)[nH]3)n(C)c2c(F)c1Cl [Example 102, 1-(5-(6-chloro-7-fluoro-3-(1H-imidazol-1-yl)-5-methoxy-1-methyl-1H-indol-2-yl)-4H-1,2,4-triazol-3-yl)ethan-1-one]",108
11,"COc1cc2c(-n3ccnc3)c(-c3nnc(C(C)N4CCOCC4)[nH]3)n(C)c2c(F)c1Cl (centres unmarked) [Example 121, 4-(1-(5-(6-chloro-7-fluoro-3-(1H-imidazol-1-yl)-5-methoxy-1-methyl-1H-indol-2-yl)-4H-1,2,4-triazol-3-yl)ethyl)morpholine]",80

# Same assay, conditions: reported for the potential mixture of co-existing tautomers and/or racemates
row,Structure (SMILES),IC50 [nM]
1,"COc1cc2c(-n3ccnc3)c(-c3nnc(C(=O)N(C)C)[nH]3)n(C)c2c(F)c1Cl [Example 39, 5-(6-chloro-7-fluoro-3-(1H-imidazol-1-yl)-5-methoxy-1-methyl-1H-indol-2-yl)-N,N-dimethyl-4H-1,2,4-triazole-3-carboxamide]",48
2,"COCC(O)c1nnc(-c2c(-n3ccnc3)c3cc(OC)c(Cl)c(F)c3n2C)[nH]1 (centres unmarked) [Example 83a, 1-(5-(6-chloro-7-fluoro-3-(1H-imidazol-1-yl)-5-methoxy-1-methyl-1H-indol-2-yl)-4H-1,2,4-triazol-3-yl)-2-methoxyethan-1-ol]",63
3,"N#Cc1cc2c(-c3cn[nH]c3)c(-c3nnc(C(F)(F)F)[nH]3)[nH]c2c(F)c1Cl [Example 6, 6-chloro-7-fluoro-3-(1H-pyrazol-4-yl)-2-(5-(trifluoromethyl)-4H-1,2,4-triazol-3-yl)-1H-indole-5-carbonitrile]",152
4,"COc1cc2c(-n3ccnc3)c(-c3nnc(C(O)C(F)F)[nH]3)n(C)c2c(F)c1Cl (centres unmarked) [Example 96, 1-(5-(6-chloro-7-fluoro-3-(1H-imidazol-1-yl)-5-methoxy-1-methyl-1H-indol-2-yl)-4H-1,2,4-triazol-3-yl)-2,2-difluoroethan-1-ol]",30
5,"COc1cc2c(-c3cn[nH]c3)c(-c3nnc(C(=O)N(C)C)[nH]3)n(C)c2c(F)c1Cl [Example 2, 5-(6-chloro-7-fluoro-5-methoxy-1-methyl-3-(1H-pyrazol-4-yl)-1H-indol-2-yl)-N,N-dimethyl-4H-1,2,4-triazole-3-carboxamide]",46
6,"COCC(O)c1nnc(-c2c(-c3cn[nH]c3)c3cc(OC)c(Cl)c(F)c3n2C)[nH]1 (centres unmarked) [Example 64, 1-(5-(6-chloro-7-fluoro-5-methoxy-1-methyl-3-(1H-pyrazol-4-yl)-1H-indol-2-yl)-4H-1,2,4-triazol-3-yl)-2-methoxyethan-1-ol]",52
7,"COc1cc2c(-n3ccnc3)c(-c3nnc(N4CC[C@H](O)C4)[nH]3)n(C)c2c(F)c1Cl [Example 92, (S)-1-(5-(6-chloro-7-fluoro-3-(1H-imidazol-1-yl)-5-methoxy-1-methyl-1H-indol-2-yl)-4H-1,2,4-triazol-3-yl)pyrrolidin-3-ol]",81
8,"OCc1nnc(-c2[nH]c3c(Cl)c(Cl)ccc3c2-c2cn[nH]c2)[nH]1 [Example 36, (5-(6,7-Dichloro-3-(1H-pyrazol-4-yl)-1H-indol-2-yl)-4H-1,2,4-triazol-3-yl)methanol]",342
9,"COc1cc2c(-c3cn[nH]c3)c(-c3nnc(C(C)(F)F)[nH]3)n(C)c2c(F)c1Cl [Example 68, 6-chloro-2-(5-(1,1-difluoroethyl)-4H-1,2,4-triazol-3-yl)-7-fluoro-5-methoxy-1-methyl-3-(1H-pyrazol-4-yl)-1H-indole]",33
10,"Oc1c(Cl)ccc2c(-c3cn[nH]c3)c(-c3nnc(C(F)(F)F)[nH]3)[nH]c12 [Example 34, 6-chloro-3-(1H-pyrazol-4-yl)-2-(5-(trifluoromethyl)-4H-1,2,4-triazol-3-yl)-1H-indol-7-ol]",954
11,"Oc1cc(-c2c(-c3nnc(C(F)(F)F)[nH]3)[nH]c3c(Cl)c(Cl)ccc23)no1 [Example 77, 3-(6,7-dichloro-2-(5-(trifluoromethyl)-4H-1,2,4-triazol-3-yl)-1H-indol-3-yl)isoxazol-5-ol]",1850
12,"COc1cc2c(-n3ccnc3)c(-c3nnc(C(=O)N4CCCC(O)C4)[nH]3)n(C)c2c(F)c1Cl (centres unmarked) [Example 45, (5-(6-chloro-7-fluoro-3-(1H-imidazol-1-yl)-5-methoxy-1-methyl-1H-indol-2-yl)-4H-1,2,4-triazol-3-yl)(3-hydroxypiperidin-1-yl)methanone]",56
13,"COCC(=O)c1nnc(-c2c(-n3ccnc3)c3cc(OC)c(Cl)c(F)c3n2C)[nH]1 [Example 88, 1-(5-(6-chloro-7-fluoro-3-(1H-imidazol-1-yl)-5-methoxy-1-methyl-1H-indol-2-yl)-4H-1,2,4-triazol-3-yl)-2-methoxyethan-1-one]",75
14,"COc1cc2c(-c3cn[nH]c3)c(-c3nnc(N(C)C(C)=O)[nH]3)n(C)c2c(F)c1Cl [Example 61, N-(5-(6-chloro-7-fluoro-5-methoxy-1-methyl-3-(1H-pyrazol-4-yl)-1H-indol-2-yl)-4H-1,2,4-triazol-3-yl)-N-methylacetamide]",41
15,"COCC(F)(F)c1nnc(-c2c(-c3cn[nH]c3)c3cc(OC)c(Cl)c(F)c3n2C)[nH]1 [Example 66, 6-chloro-2-(5-(1,1-difluoro-2-methoxyethyl)-4H-1,2,4-triazol-3-yl)-7-fluoro-5-methoxy-1-methyl-3-(1H-pyrazol-4-yl)-1H-indole]",30
16,"COc1cc2c(-c3cn[nH]c3)c(-c3nnc(C(F)(F)CO)[nH]3)n(C)c2c(F)c1Cl [Example 69, 2-(5-(6-chloro-7-fluoro-5-methoxy-1-methyl-3-(1H-pyrazol-4-yl)-1H-indol-2-yl)-4H-1,2,4-triazol-3-yl)-2,2-difluoroethan-1-ol]",38
17,"Cn1c(-c2nnc(C(F)(F)F)[nH]2)c(-c2cn[nH]c2)c2ccc(Cl)c(Cl)c21 [Example 12, 6,7-dichloro-1-methyl-3-(1H-pyrazol-4-yl)-2-(5-(trifluoromethyl)-4H-1,2,4-triazol-3-yl)-1H-indole]",48
18,"Fc1c(Cl)ccc2c(-c3cn[nH]c3)c(-c3nnc(C(F)(F)F)[nH]3)[nH]c12 [Example 16, 6-chloro-7-fluoro-3-(1H-pyrazol-4-yl)-2-(5-(trifluoromethyl)-4H-1,2,4-triazol-3-yl)-1H-indole]",44
19,"CCOc1cc2c(-c3cn[nH]c3)c(-c3nnc(C(C)=O)[nH]3)n(C)c2c(F)c1Cl [Example 74, 1-(5-(6-chloro-5-ethoxy-7-fluoro-1-methyl-3-(1H-pyrazol-4-yl)-1H-indo1-2-yl)-4H-1,2,4-triazol-3-yl)ethan-1-one]",210
20,"COc1cc2c(-n3ccnc3)c(-c3nnc(CSC)[nH]3)n(C)c2c(F)c1Cl [Example 50, 6-Chloro-7-fluoro-3-(1H-imidazol-1-yl)-5-methoxy-1-methyl-2-(5-((methylthio)methyl)-4H-1,2,4-triazol-3-yl)-1H-indole]",57
21,"COc1cc2c(-c3cn[nH]c3)c(-c3nnc(C(F)(F)F)[nH]3)[nH]c2c(F)c1Cl [Example 4, 6-chloro-7-fluoro-5-methoxy-3-(1H-pyrazol-4-yl)-2-(5-(trifluoromethyl)-4H-1,2,4-triazol-3-yl)-1H-indole]",33
